The target of this assay is T1, LipC (Haloarcula marismortui, UniProt Q5V5N6).
T1 construct: full-length, N- and C-terminal 6xHis tags, pET28a (NheI/HindIII), E. coli BL21(DE3); theoretical 34 kDa, ~50 kDa on SDS-PAGE; no signal peptide; catalytic triad Ser128, Asp224, His254; active as free monomers, mixed aggregates
T1 sequence (Q5V5N6 1-327): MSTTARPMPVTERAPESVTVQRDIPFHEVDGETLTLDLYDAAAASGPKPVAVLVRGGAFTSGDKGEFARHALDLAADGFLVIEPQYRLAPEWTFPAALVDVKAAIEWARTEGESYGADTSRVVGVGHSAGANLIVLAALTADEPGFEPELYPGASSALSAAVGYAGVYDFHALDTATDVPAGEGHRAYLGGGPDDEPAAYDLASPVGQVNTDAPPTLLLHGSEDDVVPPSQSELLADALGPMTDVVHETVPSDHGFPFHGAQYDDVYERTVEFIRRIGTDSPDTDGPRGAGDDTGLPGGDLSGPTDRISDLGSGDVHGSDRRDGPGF
In words: p-nitrophenol release at […] nm. The class given is biochemical. The settings on record: 0.5 mM substrate, 50 mM Tris-HCl pH 8.5, 45 °C, 3.4 M NaCl.

The values that follow come from publication PMC2736375, “Solution Behavior and Activity of a Halophilic Esterase under High Salt Concentration” (PLoS ONE, 2009).

`CC(=O)Oc1ccc([N+](=O)[O-])cc1` [p-NP-C2, p-nitrophenyl acetate]: the “p-nitrophenol release at 405 nm” value is listed as “The highest specific activity of LipC was found towards the short chain p-nitrophenyl esters”.
For `CCC(=O)Oc1ccc([N+](=O)[O-])cc1` [p-NP-C3] the value was “short chain p-nitrophenyl esters of p-NP-C2 and p-NP-C3”.
